Where two headings read alike, the source gives them in different places.
What was measured:
[1] = system: thymidine phosphorylase; settings: reported to date; cited from earlier work
[2] = system: Nude-mouse-transplanted human tumor
[3] = system: herpetic keratitis; settings: used as an eye drop for herpetic keratitis; cited from earlier work
[4] = system: Nude-mouse-transplanted human tumor; experiment: Test 2: antitumor effects, nude-mouse-transplanted human tumor; type: in vivo; settings: oral, once a day for 14 days
[5] = antitumor; cited from earlier work
[6] = system: Nude-mouse-transplanted human tumor; experiment: Test 4: antitumor effects, therapeutic index of F3 dThd with Compound 2; type: in vivo; settings: oral, once a day for 14 days
Description: Test 4 (Antitumor Effects)

[7] = target: T1, thymidine phosphorylase obtained from human placenta (Homo sapiens, UniProt P19971); experiment: Test 1: thymidine phosphorylase inhibiting effects (formation of [6-3H]thymine from [6-3H]thymidine); type: biochemical; settings: 37° C., 5 minutes, pH 7.4, 3 mM thymidine solution
T1 construct: thymidine phosphorylase obtained from human placenta in a highly purified form; from tissue; host or cells: human placenta
T1 sequence (P19971 11-482): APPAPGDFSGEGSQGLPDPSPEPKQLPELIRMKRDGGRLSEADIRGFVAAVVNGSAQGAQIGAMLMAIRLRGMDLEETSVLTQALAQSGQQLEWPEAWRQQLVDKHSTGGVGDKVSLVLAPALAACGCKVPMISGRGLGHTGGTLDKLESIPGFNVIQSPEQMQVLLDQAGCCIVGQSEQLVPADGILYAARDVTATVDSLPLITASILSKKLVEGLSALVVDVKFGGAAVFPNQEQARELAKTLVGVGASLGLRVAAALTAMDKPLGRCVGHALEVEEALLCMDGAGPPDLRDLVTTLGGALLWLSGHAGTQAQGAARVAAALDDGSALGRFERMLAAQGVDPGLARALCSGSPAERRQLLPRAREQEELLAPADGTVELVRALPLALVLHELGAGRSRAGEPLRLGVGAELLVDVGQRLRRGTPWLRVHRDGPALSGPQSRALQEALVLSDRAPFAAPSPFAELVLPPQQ

[8] = system: S-180 cells; settings: oral, once a day for 7 days

N#Cc1ccc(O)nc1O [3-Cyano-2,6-dihydroxypyridine]
inhibitory activities against thymidine phosphorylase [1]: not sufficient

O=c1[nH]c(=O)n([C@H]2C[C@H](O)[C@@H](CO)O2)cc1C(F)(F)F [F3 dThd, 5-Trifluoromethyl-2'-deoxyuridine]
Therapeutic index BWC-10 /ED50 ([2]; mouse, in vivo, po): 2.7 | BWC-10 ([2]; mouse, in vivo, po, 20160 min): 73.8 mg/kg | ED50 ([2]; oral, once a day for 14 days, 12.5-100 mg/kg in terms of F3 dThd): 26.9 mg/kg | antiviral activities [3]: has antiviral activities | Tumor size reduction rate ([4]; 50 mg/kg in terms of F3 dThd): 27% | Tumor size reduction rate ([4]; 100 mg/kg in terms of F3 dThd): 50% | in vitro activities [5]: strong in vitro activities | BWC-10 ([6]; body weight change, in terms of F3 dThd): 103 mg/kg | Therapeutic index BWC-10 /ED50 [6]: 1.7 | ED50 ([6]; 12.5-100 mg/kg in terms of F3 dThd): 60.0 mg/kg

Cc1cn(COCCO)c(=O)[nH]c1=O [Acyclothymidine]
inhibitory activities against thymidine phosphorylase [1]: not sufficient | IC50 [7]: > 1000 µM

O=c1[nH]c(=O)n([C@H]2C[C@H](O)[C@@H](CO)O2)cc1F [FdUrd, 5-Fluoro-2'-deoxyuridine]
Tumor size reduction rate ([8]; 5 mg/kg in terms of FdUrd): 10.5% | Tumor size reduction rate ([8]; 10 mg/kg in terms of FdUrd): 24.4% | in vitro activities [5]: strong in vitro activities

Source: patent publication US6294535A, “Uracil derivatives and antitumor effect potentiator and antitumor agent containing the same” (Taiho Pharmaceutical Co., Ltd., priority 1995, dated 2001)
